According to US6150393A (priority 1999, dated 2000):

How the values were obtained:
[1] = Bar catalepsy test in rats (extrapyramidal side effect analysis); format: in vivo, rat (male Sprague-Dawley); conditions: same dosing parameters and protocol; n=10 per dose; data not shown
5HT2 receptors = test: DOI inhibition study in rats, oral administration of test compound (oral availability); format: in vivo, rat
Protocol: (§1) FIG. 6 provides a graphic summary of the effects of oral administration of 116082 and 116081 in a DOI inhibition study in rats. Values represent the mean±SEMs (n=6/group). #P<0.05 vs. vehicle/vehicle, *P<0.05 vs. vehicle/DOI, Student t-test.
(§2) Based upon the in vivo data developed, oral bioavailability of compounds […] was considered. The compounds were administered by oral gavage at a dose of 50 mg/kg, 30 min prior to DOI in rats (see Example 11A, supra). Animals were placed in the locomotor activity cages 10 min after DOI administration and activity was measured for 10 min. Results, presented in FIG. 6, provide total activity counts over the 10 min of exposure to the locomotor activity apparatus.

[2] = as above; format: in vivo, rat; conditions: in vivo; rat; 50 mg/kg oral vs 10 mg/kg i.p., inferred from DOI test
Protocol: as §1, §2

[3] = system: human 5HT2A receptor compared with human 5HT2C receptor; test: Selectivity for 5HT2A over 5HT2C receptor (as measured by IC50 values); format: binding
[4] = system: human mutated 5HT2A receptor, AP-3; test: Receptor-mediated inositol phosphate (IP3) accumulation, AP-3; format: cell-based
Protocol: On day one, 1×10^7 293 cells per 150 mm plate were plated out. On day two, two reaction tubes were prepared (the proportions to follow for each tube are per plate): tube A was prepared by mixing 20 μg DNA (e.g., pCMV vector; pCMV vector AP-1 cDNA, etc.) in 1.2 ml serum free DMEM (Irvine Scientific, Irvine, Calif.); tube B was prepared by mixing 120 μl lipofectamine (Gibco BRL) in 1.2 ml serum free DMEM. Tubes A and B were then admixed by inversions (several times), followed by incubation at room temperature for 30-45 min. The admixture is referred to as the "transfection mixture". Plated 293 cells were washed with 1×PBS, followed by addition of 10 ml serum free DMEM. 2.4 ml of the transfection mixture was then added to the cells, followed by incubation for 4 hrs at 37° C./5% CO2. On day 3, cells were trypsinized and counted, followed by plating of 1×10^6 cells/well (poly D-lysine treated 12-well plates). Cells were permitted to adhere to the wells, followed by one wash with 1×PBS. Thereafter, 0.5 μCi ^3 H-inositol in 1 ml inositol-free DMEM was added per well. Protocol B.
On day 4, the cells were washed with 0.5 ml PBS and then 0.45 ml of assay medium was added containing inositol-free/serum free media, 10 μM pargyline, 10 mM lithium chloride, or 0.4 ml of assay medium and 50 ul of 10× ketanserin (ket) to a final concentration of 10 μM. The cells were then incubated for 30 minutes at 37° C. Then the cells were washed with 0.5 ml PBS and 200 ul of fresh/ice cold stop solution (1M KOH; 18 mM Na-borate; 3.8 mM EDTA) was added/well. The solution was kept on ice for 5-10 minutes or until the cells were lysed and then neutralized by 200 μl of fresh/ice cold neutralization sol. (7.5% HCL). The lysate was then transferred into 1.5 ml microcentrifuge tubes and 1 ml of chloroform/methanol (1:2) was added/tube. The solution was vortexed for 15 seconds and the upper phase was applied to a Biorad AG1-X8 anion exchange resin (100-200 mesh). The resin was washed with water and 0.9 ml of the upper phase was loaded onto the column. The column was washed with 10 mls of 5 mM myo-inositol and 10 ml of 5 mM Na-borate/60 mM Na-formate. The inositol trisphosphates were eluted into scintillation vials containing 10 ml of scintillation cocktail with 2 ml of 0.1 M formic acid/1 M ammonium formate. The columns were regenerated by washing with 10 ml of 0.1 M formic acid/3M ammonium formate and rinsed twice with dd H2 O and stored at room temperature in water.
Candidate compound identified in the assays of Examples 9a-9c were then evaluated for inositol phosphate accumulation, following the protocol of Example 5 ([…] expressing human mutated 5HT2A receptor, AP-3), modified as follows: tube A was prepared by mixing 16 μg DNA (e.g., pCMV vector; pCMV vector AP-1 cDNA, etc.) in 1.0 ml serum free DMEM (Irvine Scientific, Irvine, Calif.); tube B was prepared by mixing 60 μl lipofectamine (Gibco BRL) in 1.0 ml serum free DMEM. Tubes A and B were then admixed by inversions (several times), followed by incubation at room temperature for 30 min. The admixture is referred to as the "transfection mixture". Plated 293 cells were washed with 10 ml Serum Free DMEM, followed by addition of 11 ml Serum Free DMEM. 2.0 ml of the transfection mixture was then added to the cells, followed by incubation for 5 hrs at 37° C./5% CO2. On day 3, cells were trypsinized and counted, followed by plating of 1×10^6 cells/well (12-well plates). Cells were permitted to adhere to the wells for 8 hrs, followed by one wash with 1×PBS. Thereafter, 0.5 μCi ^3 H-inositol in 1 ml inositol-free DMEM was added per well.
On day 4, the cells were washed with 1.5 ml PBS and then 0.9 ml of assay medium was added containing inositol-free/serum free media, 10 μM pargyline, 10 mM lithium chloride, for 5 min in 37° C./5% CO2 followed by 100 μl addition of candidate compound diluted in the same material. The cells were then incubated for 120 minutes at 37° C. […]

Cn1cc(Br)c(-c2cccc(NC(=O)Nc3ccc(Cl)cc3)c2)n1 [Compound 116081, N-[3-(4-bromo-1-methylpyrazol-3-yl)phenyl][(4-chlorophenyl)amino]carboxamide]
cataleptic response [1]: did not produce a cataleptic response
oral efficacy compared with intraperitoneal administration (5HT2 receptors; 50 mg/kg oral vs 10 mg/kg i.p.): as efficacious as a 10 mg/kg dose of the same compounds administered intraperitoneally
reversal of DOI-induced motor dysfunction, oral (5HT2 receptors; oral gavage 50 mg/kg, 30 min prior to DOI): reversed DOI-induced motor dysfunction in rats
oral activity (5HT2 receptors; rat, DOI test, 50 mg/kg oral): orally active
bioavailability [2]: ≥ 20%
selectivity preference for the 5HT2A receptor compared with the 5HT2C receptor [3]: 100 fold
IP3 % of Control ([4]; 10 μM test compound, triplicate, control without test compound): 10%
profile in in vitro functional assays ([4]; in vitro functional assays): selective 5HT2A inverse agonist properties
